{"source": "paper PMC11928584", "about": "“H105A peptide eye drops promote photoreceptor survival in murine and human models of retinal degeneration” (Communications Medicine, 2025)", "key": {"[1]": {"experiment": "Stability of peptide H105A against temperature (storage)", "type": "physicochemical", "protocol": "Lyophilized peptides were dissolved in sterile HBSS at 1 mg/ml and stored at −20 °C. Before the peptides were used, the peptide solution was brought to room temperature and subjected to centrifugation (Eppendorf, Centrifuge 5430 R) at 20,800 x g for 10 min at 4 °C to clear and separate particulate material. In case a precipitate was found, the pH of the solution was adjusted to neutral pH with either NaOH or HCl and all peptides were soluble. The concentration of peptide solutions was determined using spectrophotometry (NanoDrop, Thermo Fisher Scientific). The stability of peptide H105A against temperature was performed and summarized in Supplementary Table 2.\nSupplementary Table 2. Stability of 17- mer[H105A] peptide.\nConcentration (mg/mL) Store Concentration (mg/mL)\n*FT, Freeze and thaw cycles daily"}, "[2]": {"experiment": "Localization of H105A in retina by anti-H105A immunofluorescence", "type": "in vivo", "settings": "RhoP23H/+ mice, daily eye drops P14-P19, anti-H105A immunofluorescence", "protocol": "To detect the transduced H105A peptide, we used a custom-made monoclonal recombinant Fab antibody raised against H105A (Bio-Rad AbD Serotec GmbH, Puchheim, Germany). The custom-made antibodies were produced by HuCAL® technology with a FLAG-tag for detection. […] Cells were maintained in DMEM 4.5 g/l (Thermo Fisher Scientific, cat. 11960), supplemented with 10% fetal bovine serum (FBS), 100 U/ml penicillin and 100 µg/ml streptomycin (Thermo Fisher Scientific, cat. 15140148) in 5% CO2 and at 37 °C. […] The specificity of the custom antibody to the H105A peptide was assessed by pre-incubation with 400 µM H105A peptide at 25 °C for 1 h before using it for immunodetection. […]\nDaily eye-drop-delivered H105A between P14 and P19 penetrated the retina, reached the photoreceptors, and w a s detected throughout the retina, mostly in the IS/OS ( c). […]\n(g-i) Negative controls for immunostaining. No staining was detected in untreated Rho P23H/+ retinas at P 19 (g), in sections where the antibody was pre-incubated with 400 µM H105A peptide for one hour (Panel h), or in sections without the primary antibody (i). […]"}}, "note": "Where a SMILES comes first, the peptide text is derived from it.", "data": [{"smiles": "CC[C@H](C)[C@H](NC(=O)[C@H](CC(C)C)NC(=O)[C@H](CC(=O)O)NC(=O)[C@H](Cc1ccc(O)cc1)NC(=O)[C@H](Cc1ccc(O)cc1)NC(=O)[C@H](CC(C)C)NC(=O)[C@H](C)NC(=O)[C@H](CCCNC(=N)N)NC(=O)[C@H](C)NC(=O)[C@@H](NC(=O)[C@@H](NC(=O)[C@H](CO)NC(=O)[C@H](CCC(=O)O)NC(=O)[C@@H](NC(=O)[C@H](CCCNC(=N)N)NC(=O)[C@@H](N)CCC(N)=O)[C@@H](C)O)[C@@H](C)CC)[C@@H](C)CC)C(=O)N[C@@H](CO)C(=O)O", "note": "[H105A] (H-QRTESIIARALYYDLIS-OH)", "values": [{"measurement": "Concentration, Day 8", "setting": "[1]; sample 1, stored at RT", "result": 1080, "unit": "µg/mL"}, {"measurement": "Concentration, Day 8", "setting": "[1]; sample 2, stored at 4°C", "result": 1160, "unit": "µg/mL"}, {"measurement": "Concentration, Day 8", "setting": "[1]; sample 3, stored at -20°C", "result": 1080, "unit": "µg/mL"}, {"measurement": "Concentration, Day 8", "setting": "[1]; sample 4, stored at -20°C [FT], freeze and thaw cycles daily", "result": 1280, "unit": "µg/mL"}, {"measurement": "localization of H105A in retina", "setting": "[2]", "result": "reaching the photoreceptors"}]}]}
